Key:
Assay in all cases: relative viability (nuclei count vs DMSO), 5 days (fraction); higher = more cells survive
Vemurafenib + Luminespib = compound: CCCS(=O)(=O)Nc1ccc(F)c(C(=O)c2c[nH]c3ncc(-c4ccc(Cl)cc4)cc23)c1F [Vemurafenib] + CCNC(=O)c1noc(-c2cc(C(C)C)c(O)cc2O)c1-c1ccc(CN2CCOCC2)cc1 [Luminespib] (partner 0.01 µM)
Procedure, shortened: (§1)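 Each reported value is a median over duplicate plates. It expresses relative viability: treated-well nuclei count divided by vehicle-well nuclei count. Lung cancer cell lines in 1536-well plates were dosed by pin tool a day after seeding, alone with one drug or with a fixed anchor-drug dose plus five library-drug doses (not always all listed) in √10 steps, and nuclei were counted after 5 days.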

OSI-027 + Pemetrexed = compound: COc1cccc2cc(-c3nc([C@H]4CC[C@H](C(=O)O)CC4)n4ncnc(N)c34)[nH]c12 [OSI-027] + Nc1nc2[nH]cc(CCc3ccc(C(=O)N[C@@H](CCC(=O)O)C(=O)O)cc3)c2c(=O)[nH]1 [Pemetrexed] (partner 0.2 µM)
Procedure, shortened: as §1

Alpelisib + Foretinib = compound: Cc1nc(NC(=O)N2CCC[C@H]2C(N)=O)sc1-c1ccnc(C(C)(C)C(F)(F)F)c1 [Alpelisib] + COc1cc2c(Oc3ccc(NC(=O)C4(C(=O)Nc5ccc(F)cc5)CC4)cc3F)ccnc2cc1OCCCN1CCOCC1 [Foretinib] (partner 0.25 µM)
Procedure, shortened: as §1

Alpelisib + Tozasertib = compound: Cc1nc(NC(=O)N2CCC[C@H]2C(N)=O)sc1-c1ccnc(C(C)(C)C(F)(F)F)c1 [Alpelisib] + Cc1cc(Nc2cc(N3CCN(C)CC3)nc(Sc3ccc(NC(=O)C4CC4)cc3)n2)n[nH]1 [Tozasertib] (partner 0.1 µM)
Procedure, shortened: as §1

| Cell Line | relative viability (Vemurafenib + Luminespib; first compound 0.03162 µM) | relative viability (Vemurafenib + Luminespib; first compound 0.1 µM) | relative viability (Vemurafenib + Luminespib; first compound 0.3162 µM) | relative viability (Vemurafenib + Luminespib; first compound 1 µM) | relative viability (OSI-027 + Pemetrexed; first compound 0.01 µM) | relative viability (OSI-027 + Pemetrexed; first compound 0.03162 µM) | relative viability (OSI-027 + Pemetrexed; first compound 0.1 µM) | relative viability (OSI-027 + Pemetrexed; first compound 0.3162 µM) | relative viability (OSI-027 + Pemetrexed; first compound 1 µM) | relative viability (Alpelisib + Foretinib; first compound 0.04 µM) | relative viability (Alpelisib + Foretinib; first compound 0.1265 µM) | relative viability (Alpelisib + Foretinib; first compound 0.4 µM) | relative viability (Alpelisib + Foretinib; first compound 1.265 µM) | relative viability (Alpelisib + Foretinib; first compound 4 µM) | relative viability (Alpelisib + Tozasertib; first compound 0.04 µM) | relative viability (Alpelisib + Tozasertib; first compound 0.1265 µM) | relative viability (Alpelisib + Tozasertib; first compound 0.4 µM) | relative viability (Alpelisib + Tozasertib; first compound 1.265 µM) | relative viability (Alpelisib + Tozasertib; first compound 4 µM) |
| --- | --- | --- | --- | --- | --- | --- | --- | --- | --- | --- | --- | --- | --- | --- | --- | --- | --- | --- | --- |
| NCI-H441 | 0.373 | 0.245 | 0.392 | 0.316 | 0.259 | 0.213 | 0.285 | 0.255 | 0.251 | 0.891 | 0.844 | 0.786 | 0.724 | 0.566 | 0.629 | 0.537 | 0.693 | 0.418 | 0.366 |
| NCI-H460 | 0.0379 | 0.0333 | 0.0345 | 0.0293 | 0.0613 | 0.0659 | 0.0561 | 0.0523 | 0.0728 | 0.998 | 1.02 | 1.08 | 0.929 | 0.795 | 0.153 | 0.44 | 0.563 | 0.181 | 0.241 |
| NCI-H520 | 0.187 | 0.231 | 0.221 | 0.233 | 0.785 | 0.645 | 0.596 | 0.487 | 0.263 | 0.682 | 0.928 | 0.838 | 0.605 | 0.582 | 0.449 | 0.461 | 0.462 | 0.351 | 0.309 |
| NCI-H596 | 0.984 | 1.1 | 1.01 | 0.958 | 0.436 | 0.576 | 0.463 | 0.475 | 0.504 | 0.769 | 0.677 | 0.731 | 0.457 | 0.431 | 0.859 | 0.893 | 0.86 | 0.56 | 0.374 |
| NCI-H647 | 0.157 | 0.165 | 0.138 | 0.212 | 0.159 | 0.173 | 0.187 | 0.157 | 0.211 | 1.12 | 1.14 | 1.33 | 0.837 | 1.24 | 0.416 | 0.322 | 0.419 | 0.102 | 0.26 |
| NCI-H650 | 0.72 | 0.852 | – | 0.637 | 0.878 | 1.03 | 0.836 | 0.671 | 0.367 | 1.03 | 0.988 | 1.01 | 0.839 | 0.822 | 0.705 | 0.758 | 0.798 | 0.54 | 0.573 |
| NCI-H661 | 0.979 | 0.806 | 0.897 | 0.953 | 0.886 | 0.941 | 0.934 | 0.882 | 0.631 | 1.02 | 1.05 | 1.08 | 1.02 | 0.92 | 0.369 | 0.362 | 0.348 | 0.337 | 0.323 |
| NCI-H838 | 0.291 | 0.349 | – | 0.352 | 0.245 | 0.255 | 0.249 | 0.234 | 0.214 | 0.94 | 0.961 | 1.01 | 0.892 | 0.871 | 0.279 | 0.25 | 0.277 | 0.215 | 0.247 |
| NCI-H1355 | 0.664 | 0.662 | 0.696 | 0.672 | 1.07 | 1.06 | 1 | 0.777 | 0.572 | 0.951 | 0.926 | 1.04 | 0.851 | 0.77 | 0.539 | 0.489 | 0.528 | 0.441 | 0.373 |
| NCI-H1395 | 0.679 | 0.445 | – | 0.555 | 0.736 | 0.826 | 0.643 | 0.74 | 0.74 | 0.889 | 1.04 | 1.01 | 0.897 | 0.988 | 0.823 | 0.695 | 0.743 | 0.616 | 0.735 |
| NCI-H1437 | 1.09 | 1.07 | 1.2 | 1.12 | 0.357 | 0.348 | 0.26 | 0.259 | 0.24 | 1.23 | 1.33 | 1.33 | 1.27 | 1.31 | 0.41 | 0.394 | 0.417 | 0.336 | 0.306 |
| NCI-H1650 | – | 0.205 | – | 0.215 | 0.404 | 0.361 | 0.369 | 0.405 | 0.475 | 1.09 | 1.1 | 1.35 | 0.867 | 1.15 | 0.464 | 0.287 | 0.375 | 0.332 | 0.36 |
| NCI-H1651 | 0.91 | 1.05 | 0.946 | 0.84 | 0.54 | 0.575 | 0.532 | 0.57 | 0.523 | 0.683 | 0.853 | 0.791 | 0.571 | 0.741 | 0.636 | 0.651 | 0.708 | 0.653 | 0.607 |
| NCI-H1666 | 0.933 | 0.877 | 1.02 | 0.966 | 0.853 | 0.905 | 0.832 | 0.831 | 0.787 | 1 | 1.02 | 1.05 | 0.801 | 0.74 | 0.668 | 0.63 | 0.636 | 0.519 | 0.528 |
| NCI-H1734 | 0.196 | 0.183 | 0.233 | 0.2 | 0.416 | 0.436 | 0.371 | 0.412 | 0.386 | 0.749 | – | 0.786 | 0.486 | 0.356 | 0.289 | – | 0.299 | 0.224 | 0.205 |
| NCI-H1755 | 0.442 | 0.574 | 0.332 | 0.462 | 0.5 | 0.417 | 0.454 | 0.655 | 0.439 | 0.95 | 0.924 | 0.962 | 0.785 | 0.731 | 0.615 | 0.508 | 0.629 | 0.438 | 0.434 |
| NCI-H1793 | 0.16 | – | 0.173 | 0.166 | 0.795 | 0.866 | 0.468 | 0.391 | 0.209 | 0.733 | 0.666 | 0.77 | 0.402 | 0.42 | 0.275 | 0.383 | 0.312 | 0.169 | 0.188 |

Source: the supplement of paper PMC10307832
